Laboratory results published in patent US20240190866A1, “POLYHYDROXYLATED INDOLIZIDINE AND PYRROLIZIDINE DERIVATIVES AND USES THEREOF” (Academia Sinica, priority 2021, published 2024).

What was measured:
Huh7 cells [1] = experiment: Surface binding of lectin by fluorescence microscopy; format: cell-based, human; details: Huh7, 10 μM, 48 h
[2] = Serum biochemistry assay in Huh7 xenograft mice; format: in vivo, NOD-SCID mice; details: serum, 30 mg/kg i.p., twice a week
Protocol: All blood specimens were collected in tubes and were left at 25° C. for 30 min to clot and centrifuged for 10 min at 1200 g. The concentrations of the following biochemical serum analytes collected were measured with FUJI DRI-CHEM 500i analyzer (FUJIFILM Corp., Tokyo, Japan) using the manufacturer's reagents and according to the manufacturer's instructions: Alanine Aminotransferase ALT), Aspartate Aminotransferase (AST), Blood Urea Nitrogen (BUN), Creatinine (CRE) and Total Bilirubin (TBIL).
HCC xenografts were established in 5-6 weeks old NOD-SCID mice by subcutaneous inoculation of about 5×10^6 Huh7 cells suspended in 50 μL PBS+50 μL, Matrigel (Corning, 394230) in the left and right flanks of each mouse. After one week of inoculation, tumors were palpable and the mice were assigned randomly to 1 of 4 treatment groups. Group 1 (vehicle control group, n=6) mice only received a vehicle solution containing Kolliphor EL (Sigma Aldrich, C5135), 99.9% ethanol and water in a ratio of 1:1:6. Groups 2, 3, 4 and 5 mice were intraperitoneally injected with the test compound (e.g., compound ACK900, ACK901, or ACK902) (30 mg/kg, ip, n=7/group) or sorafenib (30 mg/kg, ip, n=6/group), twice per week for 25 days. The tumor volume was calculated by the formula of a ratioinal ellipsoid: [0.5236×short axis) m1^2×(long axis)m^2], and the tumor volume was measured twice per week. All mice were sacrificed at 27 days after the treatment started. Tumor tissues were isolated, photographed and weighted.
In vivo tumor growth inhibition studies in human Huh7 xenograft rodents were performed in accordance with procedures as described in the “Material and Method” section. Xenograft tumors were generated by implanting Huh7 cells (5×10^6) subcutaneously into the left and right flanks of each NOD-SCID mouse. Starting on the 7th day after the inoculation of Huh7 cells, the mice were injected with ACK900, ACK901, ACK902 or sorafenib intraperitoneally (i.p.) at a dose of 30 mg/kg and twice a week for 34 days.

[3] = biological target: human lysosomal α-mannosidase (α-hLM) (Homo sapiens (Human), UniProt O00754); experiment: α-Mannosidase (α-hLM) activity assay, 4-MU-α-D-mannopyranoside substrate; format: biochemical; details: pH 4.6, 37° C., 1 h
Protocol: (§1) Compounds were diluted to give the final concentration of 100 μM and mixed with 4-MU-α-D-mannopyranoside as substrate and human Golgi α-mannosidase II in phosphate buffer (0.1 M Sodium phosphate dibasic, pH 7.0) or human lysosomal α-mannosidase in citric phosphate buffer (0.1 M Sodium phosphate monobasic monohydrate, 0.5 mM citric acid monohydrate, pH 4.6). The assay was carried out at 37° C. for a certain time (1 h for α-hLM, 2 h for α-hGMII). Stop solution (0.5 M K2CO3(aq), pH 10.8) was then added to the reactions and the fluorescence was determined at 355 nm excitation and 460 nm emission (SpectraMax M5, Molecular Devices). Inhibition was performed as relative enzyme activity to control. The active compounds were selected for libraries preparation and further tested at lower concentration to determine their IC50 values. The assays performed in 384-wells of the microtiter plates.

PANC-1 cells = experiment: Anti-proliferative activity assay (MTT); format: cell-based, human; details: 72 h
Protocol: (§2) Human liver cancer HepG2 cells and Huh7 cells, breast cancer MDA-MB-231 cells, pancreatic cancer PANC-1 cells, and non-small cell lung (NSCL) cancer H1975 cells were maintained in Dulbecco's Modified Eagle Medium supplemented containing 10% fetal bovine serum (FBS), 100 units/ml penicillin and […] streptomycin in 37° C. incubator with 5% CO2.
(§3) Anti-proliferative activity of HepG2, Huh7 or PANC-1 cells was determined by 3-(4,5-dimethylthiazol-2-yl)-2,5-diphenyltetrazolium bromide (MTT) assay, while that of H1975 or MDA-MB-231 cells was determined by luminescent assay with the aid of commercial kit CellTiter-Glo® (Promega).
(§4) Cancer cells including HepG2, Huh7 and PANC-1 cells were respectively seeded at 10^4, 4×10^3, and 5×10^3 cells/well in 96-well plates and maintained for 14-16 hours. Cells were treated with dimethylsulfoxide (DMSO) or test compounds in varied concentrations for 72 h. Cells were then washed with PBS twice, added a medium containing 3-(4,5-dimethylthiazol-2-yl)-2,5-diphenyltetrazolium bromide (MTT) at a final concentration of 0.5 mg/mL, and incubated for 4 h at 37° C. in a humidified incubator containing 5% CO2 in air. Cells having functional succinate dehydrogenase of mithchondria would convert MTT to formazan. Then, the medium was replaced with 100 μL of DMSO for 30 min at room temperature, and the 96-well plate was read by an ELISA reader at 550 nm to get the absorbance density values. The IC50 values of death cell lines were calculated accordingly.

Huh7 cells [4] = experiment: Anti-proliferative activity assay (MTT); format: cell-based, human; details: 72 h
Protocol: as §2, §3, §4

HepG2 cells [5] = experiment: Anti-proliferative activity assay (MTT); format: cell-based, human; details: 72 h
Protocol: as §2, §3, §4

[6] = biological target: human Golgi α-mannosidase II (α-hGMII) (Homo sapiens (Human), UniProt Q16706); experiment: Golgi α-mannosidase II (α-hGMII) activity assay, 4-MU-α-D-mannopyranoside substrate; format: biochemical; details: pH 7.0, 37° C., 2 h
Protocol: as §1

Huh7 cells [7] = experiment: N-glycan profiling by mass spectrometric analysis; format: cell-based, human; details: Huh7, 0.1 to 10 μM, 72 h
Protocol: (§5) To this purpose, HepG2 and Huh7 cells were treated with ACK900 in dose-dependent manner (0.1 to 10 μM) for 72 h and N-glycan profiling was determined using mass spectrometric analysis. (FIGS. 1B and 1C)), This method was based on matching the experimental masses with the predicted masses of the glycans from the CFG carbohydrate database. The individual glycoforms were quantified and calculated for their proportions in all the glycoforms. Most N-glycans of untreated HepG2 and Huh7 were dominated by complex-type glycans containing sialic acids and fucoses. High-mannose or hybrid-type glycans were found in a relatively low percentage. […] These glycoform data from MS analysis were consistent with the surface binding of lectin using fluorescence microscopy.

HepG2 cells [8] = experiment: N-glycan profiling by mass spectrometric analysis; format: cell-based, human; details: HepG2, 0.1 to 10 μM, 72 h
Protocol: as §5

human Golgi α-mannosidase II (α-hGMII), sequence (Q16706 whole entry): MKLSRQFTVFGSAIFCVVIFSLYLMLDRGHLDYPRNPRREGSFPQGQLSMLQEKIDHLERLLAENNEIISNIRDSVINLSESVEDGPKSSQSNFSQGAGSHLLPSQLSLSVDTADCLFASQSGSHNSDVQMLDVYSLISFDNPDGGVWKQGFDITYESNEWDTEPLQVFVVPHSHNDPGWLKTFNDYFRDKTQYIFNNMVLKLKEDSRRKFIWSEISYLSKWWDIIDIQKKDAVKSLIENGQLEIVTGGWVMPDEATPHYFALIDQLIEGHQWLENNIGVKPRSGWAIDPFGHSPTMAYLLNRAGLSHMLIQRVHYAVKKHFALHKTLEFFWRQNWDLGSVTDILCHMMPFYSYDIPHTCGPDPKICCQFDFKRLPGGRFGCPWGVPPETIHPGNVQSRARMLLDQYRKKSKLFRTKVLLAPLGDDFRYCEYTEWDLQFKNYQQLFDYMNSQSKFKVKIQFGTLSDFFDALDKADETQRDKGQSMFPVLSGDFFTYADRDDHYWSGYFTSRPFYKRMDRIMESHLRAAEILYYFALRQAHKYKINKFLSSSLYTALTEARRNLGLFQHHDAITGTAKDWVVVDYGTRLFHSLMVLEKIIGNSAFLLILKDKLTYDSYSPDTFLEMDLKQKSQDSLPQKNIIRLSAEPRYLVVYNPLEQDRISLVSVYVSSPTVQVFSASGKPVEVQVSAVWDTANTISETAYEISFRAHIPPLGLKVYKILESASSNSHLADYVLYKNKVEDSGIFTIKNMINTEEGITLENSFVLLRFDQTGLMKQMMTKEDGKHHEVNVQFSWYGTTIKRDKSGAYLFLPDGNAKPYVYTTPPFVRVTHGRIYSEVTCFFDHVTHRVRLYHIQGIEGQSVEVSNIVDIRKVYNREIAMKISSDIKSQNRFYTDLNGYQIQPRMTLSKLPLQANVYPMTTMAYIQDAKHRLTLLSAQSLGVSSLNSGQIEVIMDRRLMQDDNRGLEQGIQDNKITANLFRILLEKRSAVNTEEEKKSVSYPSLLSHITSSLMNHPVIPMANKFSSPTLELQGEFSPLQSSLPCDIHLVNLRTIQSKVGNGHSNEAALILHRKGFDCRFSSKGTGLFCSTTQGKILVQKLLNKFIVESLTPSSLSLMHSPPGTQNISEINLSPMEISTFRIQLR
human lysosomal α-mannosidase (α-hLM), sequence (O00754 50-1011): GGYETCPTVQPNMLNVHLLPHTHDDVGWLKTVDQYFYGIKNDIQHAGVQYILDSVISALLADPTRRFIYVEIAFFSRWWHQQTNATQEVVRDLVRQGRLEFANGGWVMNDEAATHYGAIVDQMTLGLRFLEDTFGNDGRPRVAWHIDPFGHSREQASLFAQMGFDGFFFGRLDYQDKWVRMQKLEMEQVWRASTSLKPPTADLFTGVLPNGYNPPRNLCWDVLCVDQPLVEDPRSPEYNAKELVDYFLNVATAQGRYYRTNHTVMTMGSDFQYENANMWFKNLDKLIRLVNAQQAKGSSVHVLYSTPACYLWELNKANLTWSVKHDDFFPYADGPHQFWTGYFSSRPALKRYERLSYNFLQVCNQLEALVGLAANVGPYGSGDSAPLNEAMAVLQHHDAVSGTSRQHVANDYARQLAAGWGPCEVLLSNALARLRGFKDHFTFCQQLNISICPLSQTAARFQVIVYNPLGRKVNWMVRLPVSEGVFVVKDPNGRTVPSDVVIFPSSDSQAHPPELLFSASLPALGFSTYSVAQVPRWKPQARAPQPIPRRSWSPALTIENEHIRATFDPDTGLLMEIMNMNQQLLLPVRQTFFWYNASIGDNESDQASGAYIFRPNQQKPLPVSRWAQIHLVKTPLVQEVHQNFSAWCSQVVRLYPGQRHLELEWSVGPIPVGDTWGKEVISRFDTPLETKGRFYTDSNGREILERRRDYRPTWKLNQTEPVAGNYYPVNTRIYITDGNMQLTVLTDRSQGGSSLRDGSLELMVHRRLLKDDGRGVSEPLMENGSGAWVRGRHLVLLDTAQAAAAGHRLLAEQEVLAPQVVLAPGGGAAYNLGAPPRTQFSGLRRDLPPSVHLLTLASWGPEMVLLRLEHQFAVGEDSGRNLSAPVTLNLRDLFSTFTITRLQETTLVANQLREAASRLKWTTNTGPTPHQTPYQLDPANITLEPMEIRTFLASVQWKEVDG

CCC[C@H]1CC[C@H](c2ccc(NC(=S)NC[C@@H]3[C@@H](O)[C@@H](O)[C@H]4[C@H](O)CCCN43)cc2)CC1 [ACK900]
surface binding of Concanavalin A (ConA) (Huh7 cells [1]): markedly increased | surface binding of galectin-1 (Gal1) (Huh7 cells [1]): substantially decreased | ALT [2]: 101.57 ± 70.63 U/L | AST [2]: 223.42 ± 157.00 U/L | BUN [2]: 22.37 ± 4.41 mg/dL | CRE [2]: 0.33 ± 0.05 mg/dL | TBIL [2]: 0.55 ± 0.18 mg/dL | IC50 [3]: 14 µM | IC50 (PANC-1 cells): 14.5 µM | IC50 (Huh7 cells [4]): 7.8 µM | IC50 (HepG2 cells [5]): 5.9 µM | IC50 [6]: 0.1 µM | N-glycan pattern (Huh7 cells [7]): significant shift of N-glycopatterns from complex chains to the hybrid-type glycan | N-glycan pattern (HepG2 cells [8]): significant shift of N-glycopatterns from complex chains to the hybrid-type glycan
